Reference: article PMC9369311, “Examination of Intracellular GPCR-Mediated Signaling with High Temporal Resolution” (International Journal of Molecular Sciences, 2022)
Several values for one entry are separate records, joined by “and”; a condition that tells them apart may be missing. Equal values may be shown once.

Biological target: T1, DmOctα1B receptor (Drosophila melanogaster, UniProt Q7JQF1)
T1 construct: expressed in transfected cells
T1 sequence (Q7JQF1 1-645): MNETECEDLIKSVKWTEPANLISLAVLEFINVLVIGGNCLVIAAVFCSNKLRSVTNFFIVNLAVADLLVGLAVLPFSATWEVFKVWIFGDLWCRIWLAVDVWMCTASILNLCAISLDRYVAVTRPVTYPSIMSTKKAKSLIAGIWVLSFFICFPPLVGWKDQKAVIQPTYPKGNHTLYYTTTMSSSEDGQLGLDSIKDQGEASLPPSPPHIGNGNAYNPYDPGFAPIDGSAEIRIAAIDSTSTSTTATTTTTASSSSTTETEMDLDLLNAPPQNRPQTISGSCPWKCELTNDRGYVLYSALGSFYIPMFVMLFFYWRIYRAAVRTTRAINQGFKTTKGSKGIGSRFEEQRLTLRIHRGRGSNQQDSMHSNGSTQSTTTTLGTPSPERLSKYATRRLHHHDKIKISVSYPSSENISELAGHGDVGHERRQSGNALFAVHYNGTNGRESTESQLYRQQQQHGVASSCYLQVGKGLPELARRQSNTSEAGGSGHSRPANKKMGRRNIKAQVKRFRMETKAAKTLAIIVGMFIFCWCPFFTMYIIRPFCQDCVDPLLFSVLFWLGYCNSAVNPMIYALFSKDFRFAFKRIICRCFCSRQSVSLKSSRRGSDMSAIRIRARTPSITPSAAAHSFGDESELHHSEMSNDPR
Experiment: Stopped-flow Ca2+ fluorescence measurements, DmOctα1B-expressing HEK293 cells
Assay type: cell-based
Conditions: for response time: Fluo-4 or GCaMP3.0
Experimental: As described for the fluorimetric measurements performed in 96 well plates, the stimulation of the DmOctα1B receptors with octopamine results in an efflux of Ca^2+ from the intracellular stores, which was now analyzed by stopped-flow experiments with high temporal resolution. The cells loaded with Fluo-4 or constitutively expressing GCaMP3.0 were diluted in extracellular solution (ES) to a density of 1 × 10^6 cells/mL prior to application to the stopped-flow system. The cells were mixed with increasing ligand concentrations and the fluorescence signals were monitored for 40 s (Figure 3). The increasing ligand concentrations lead to a rise in the fluorescence intensities. The initial Ca^2+ responses were detected at 1 nM octopamine and saturated at ligand concentrations ≥ 30 nM. After reaching a maximum, the fluorescence intensities decreased (Figure 3A1). This effect was more pronounced for concentrations ≤ 30 nM. In the cells expressing GCaMP3.0 (DmOctα1B-GCaMP3.0), additional increases in Ca^2+ were resolved (Figure 3B1), probably monitoring the Ca^2+ oscillations that are known to be induced upon DmOctα1B activation. To determine the ligand affinities for the receptor, the maximal fluorescence intensities were plotted against the octopamine concentrations. […] The EC50 values were obtained from nonlinear fitting of the data, using GraphPad Prism v5.04. […] Besides the determination of the EC50 values, information about reaction velocities could be gained when analyzing the first 4 s of the measurements. The increasing octopamine concentrations correlated with faster signal detection (Figure 3A2,B2). […] The reaction velocities in a concentration range from 3 nM to 300 nM octopamine were almost identical for the Fluo-4-loaded and the GCaMP3.0-expressing cells.
For the stopped-flow measurements, the SFM-400 system (BioLogic, Münster, Germany) was used. The main component of the stopped-flow setup is the SFM-400 module with four 10 mL syringes, which can be filled by external valves. The syringes are driven by step motors. The reactants can be mixed in three individual mixing chambers (M1–M3). The volume between M1 and M2 is 21 µL, and 31 µL between M2 and M3. The observation chamber is a quartz cuvette (FC-15) with a reaction volume of 31 µL, installed behind M3. To avoid fluctuations of the reaction mixture in the cuvette, which might lead to noisy and inconsistent signals, a hard stop valve located behind the cuvette can be closed after injection of the reactants. The stopped-flow module is controlled via a MPS-60 control unit (BioLogic). Data acquisition and operation of the system were performed with the Bio-Kine 32 v4.74 software (BioLogic).
The reactions in the cuvette were analyzed via the changes in the fluorescence. A 150 W Xe/Hg-lamp (ALX-220; BioLogic) was used as a light source for the excitation. The excitation light was guided via a light guide towards the cuvette. To determine the wavelength of the excitation light, a 482 nm bandpass filter (482/35 nm BrightLine® single-band bandpass filter; Semrock, Rochester, NY, USA) was used. A heat protection filter (3 mm; KG1, Schott; Mainz, Germany) was placed between the Xe/Hg-lamp and the excitation filter. The fluorescence was detected with a photomultiplier (PMS 200, BioLogic) installed rectangularly to the light path of the excitation light. Between the cuvette and the photomultiplier tube a 535 nm bandpass emission filter (XF3007 535AF35; Horiba, Oberursel, Germany) was placed to select for the emission light being detected by the photomultiplier. A voltage of 600 V was applied to the photomultiplier.
The fluorescence measurements were performed either directly with the cells expressing GCaMP3.0 or after loading the cells with Fluo-4-AM. Changes in the intracellular Ca^2+ were induced by stimulating the cells with a concentration series of different ligands. In the stopped-flow module, four different solutions can be mixed. […]

response time (low ligand concentrations ≤ 3 nM (1 nM elsewhere in the source)): ~ 2 s and 2 s
Signal Response Time (saturating concentration, DmOctα1B cells loaded with Fluo-4, mean ± SEM): 0.35 ± 0.04 s
Signal Response Time (saturating concentration, DmOctα1B-GCaMP3.0 cells, mean ± SEM): 0.36 ± 0.05 s
Signal Response Time (saturating ligand concentration, DmOctα1B cell lines, Fluo-4 and GCaMP3.0): 0.35 s
response time (saturating octopamine concentrations (≥30 nM; 300 nM)): ~ 300 ms and ≈ 350 ms
concentration at which initial Ca2+ responses were detected (stopped-flow, DmOctα1B cells): 1 nM
ligand concentration at which Ca2+ responses saturated (stopped-flow, DmOctα1B cells): ≥ 30 nM
EC50 (stopped-flow, DmOctα1B cells loaded with Fluo-4, mean ± SEM): 2.25 nM and 2.3 nM
EC50 (stopped-flow, DmOctα1B-GCaMP3.0 cells, mean ± SEM): 1.7 ± 0.1 nM
Structure (SMILES): NCC(O)c1ccc(O)cc1 (stereo not drawn) [octopamine]
